“Also recorded” adds a separate entry of the source.
System: PSAC
Experiment: K0.5 for PSAC block, light-scattering osmotic lysis assay in sorbitol (Example 1)
Type: cell-based, P. falciparum
Settings: concentration producing 50% block of PSAC-mediated solute uptake
Text: The chemical inhibitors included:
In this assay, increases in transmittance (% T, measured at 700 nm) correlated directly to lysis of infected RBCs and were plotted in arbitrary units. Uninfected RBCs lacked PSAC activity and had undetectably low sorbitol permeability.

SMILES	K0.5 for PSAC block
OC(c1cc(C(F)(F)F)nc2c(C(F)(F)F)cccc12)C1CCCCN1 (centres unmarked) [mefloquine]	did not inhibit PSAC activity
CCN(CC)CCCC(C)Nc1ccnc2cc(Cl)ccc12 (centres unmarked) [chloroquine, reference compound]	did not inhibit PSAC activity
C[C@@H]1CC[C@H]2[C@@H](C)C(=O)O[C@@H]3O[C@@]4(C)CC[C@@H]1[C@]32OO4 [artemisinin]	did not inhibit PSAC activity

Same assay, conditions: concentration producing 50% block of PSAC-mediated solute uptake, listed as Artemisinin

SMILES	K0.5 for PSAC block
C[C@@H]1CC[C@H]2[C@@H](C)C(=O)O[C@@H]3O[C@@]4(C)CC[C@@H]1[C@]32OO4 [artemisinin]	inactive

Same assay, conditions: concentration producing 50% block of PSAC-mediated solute uptake, listed as Mefloquine

SMILES	K0.5 for PSAC block
OC(c1cc(C(F)(F)F)nc2c(C(F)(F)F)cccc12)C1CCCCN1 (centres unmarked) [mefloquine]	inactive

Same assay, conditions: read-out: K0.5 for PSAC block, concentration producing 50% block of PSAC-mediated solute uptake

SMILES	IC50 [µM]
CCc1nn2c(=O)cc(CSc3nc4ccc(NC(=O)c5cccs5)cc4s3)nc2s1 [Compound of formula (2a)]	0.01
Cc1ccc(C)c(N2CCN(S(=O)(=O)c3ccc(-c4ccc(=O)[nH]n4)s3)CC2)c1 [Compound of formula (1a)]	0.003

System: P. falciparum
Experiment: In vitro parasite killing, SYBR Green I fluorescence assay in RPMI 1640 or PLM (Example 1)
Type: cell-based
Settings: Plasmodium falciparum, 72 h, read-out: PLM IC50
Method: In vitro parasite killing by PSAC inhibitors was quantified using a SYBR Green I-based fluorescence assay for parasite nucleic acid in 96-well format.
Cultures were maintained for 3 days at 37° C. in 5% 02, 5% CO2 without media change. After this incubation, Sybr Green I was added in 20 mM Tris, 10 mM EDTA, 0.016% saponin, 1.6% triton X100.

SMILES	IC50 [µM]
CCN(CC)CCCC(C)Nc1ccnc2cc(Cl)ccc12 (centres unmarked) [chloroquine, reference compound]	0.34

Same assay, conditions: Plasmodium falciparum, 72 h, read-out: RPMI IC50

SMILES	IC50 [µM]
CCN(CC)CCCC(C)Nc1ccnc2cc(Cl)ccc12 (centres unmarked) [chloroquine, reference compound]	0.22

Same assay, conditions: Plasmodium falciparum, 72 h; PSAC-limiting medium (PLM), 3 days; read-out: PLM IC50

SMILES	IC50 [µM]
OC(c1cc(C(F)(F)F)nc2c(C(F)(F)F)cccc12)C1CCCCN1 (centres unmarked) [mefloquine]	0.033
CCc1nn2c(=O)cc(CSc3nc4ccc(NC(=O)c5cccs5)cc4s3)nc2s1 [Compound of formula (2a)]	0.3
Cc1ccc(C)c(N2CCN(S(=O)(=O)c3ccc(-c4ccc(=O)[nH]n4)s3)CC2)c1 [Compound of formula (1a)]	0.0023
C[C@@H]1CC[C@H]2[C@@H](C)C(=O)O[C@@H]3O[C@@]4(C)CC[C@@H]1[C@]32OO4 [artemisinin]	0.026

Same assay, conditions: Plasmodium falciparum, 72 h; RPMI 1640 standard media, 3 days; read-out: RPMI IC50

SMILES	IC50 [µM]
OC(c1cc(C(F)(F)F)nc2c(C(F)(F)F)cccc12)C1CCCCN1 (centres unmarked) [mefloquine]	0.022
CCc1nn2c(=O)cc(CSc3nc4ccc(NC(=O)c5cccs5)cc4s3)nc2s1 [Compound of formula (2a)]	> 30
Cc1ccc(C)c(N2CCN(S(=O)(=O)c3ccc(-c4ccc(=O)[nH]n4)s3)CC2)c1 [Compound of formula (1a)]	1.5
C[C@@H]1CC[C@H]2[C@@H](C)C(=O)O[C@@H]3O[C@@]4(C)CC[C@@H]1[C@]32OO4 [artemisinin]	0.018

Same assay, conditions: ratio of IC50 RPMI/PLM

SMILES	Ratio (RPMI/PLM)
OC(c1cc(C(F)(F)F)nc2c(C(F)(F)F)cccc12)C1CCCCN1 (centres unmarked) [mefloquine]	0.66
CCc1nn2c(=O)cc(CSc3nc4ccc(NC(=O)c5cccs5)cc4s3)nc2s1 [Compound of formula (2a)]	>100
Cc1ccc(C)c(N2CCN(S(=O)(=O)c3ccc(-c4ccc(=O)[nH]n4)s3)CC2)c1 [Compound of formula (1a)]	800
C[C@@H]1CC[C@H]2[C@@H](C)C(=O)O[C@@H]3O[C@@]4(C)CC[C@@H]1[C@]32OO4 [artemisinin]	0.66

System: PSAC
Experiment: Transport inhibition assay, osmotic lysis of infected cells in sorbitol (Table 5)
Type: cell-based, P. falciparum
Settings: 37° C.

SMILES	Transport inhibition K0.5
OC(c1cc(C(F)(F)F)nc2c(C(F)(F)F)cccc12)C1CCCCN1 (centres unmarked) [mefloquine]	do not inhibit PSAC-mediated solute uptake; also recorded: inactive
CCN(CC)CCCC(C)Nc1ccnc2cc(Cl)ccc12 (centres unmarked) [chloroquine, reference compound]	do not inhibit PSAC-mediated solute uptake; also recorded: inactive
C[C@@H]1CC[C@H]2[C@@H](C)C(=O)O[C@@H]3O[C@@]4(C)CC[C@@H]1[C@]32OO4 [artemisinin]	do not inhibit PSAC-mediated solute uptake; also recorded: inactive

Same assay, conditions: 37° C., read-out: Transport inhibition K0.5

SMILES	IC50 [µM]
O=C1Nc2cc(C(=O)N3CCN(c4ccccc4)CC3)ccc2Sc2ccccc21 [(3) (TP-52)]	0.025
O=C1CN(/N=C/c2ccc(-c3ccc([N+](=O)[O-])cc3)o2)C(=O)N1 [dantrolene, reference compound]	1.2
CC1=Nc2ccc(C)cc2C1/C=C1/C(=N)N2N=C(S(=O)(=O)CC(C)C)SC2=NC1=O (centres unmarked) [Cpd 50]	0.081
COc1ccc2cc3cc(C(=O)N(C)C4CCCCC4)oc3nc2c1 [(25)]	0.033
O=C1N=C(N2CCCC2)S/C1=C/c1cccc(Cl)c1 [Cpd 80]	0.044
CCCCN(CC)C(=O)c1cc2cc3ccc(C)cc3nc2o1 [(24)]	0.087
CCN(Cc1ccccc1)C(=O)c1ccc2c(c1)NC(=O)c1ccccc1S2 [(31)]	0.084
Cc1ccc(C)c(N2CCN(S(=O)(=O)c3ccc(-c4ccc(=O)[nH]n4)s3)CC2)c1 [ISG-21]	0.0026

Same assay, conditions: read-out: Transport inhibition K0.5, 37° C.

SMILES	IC50 [µM]
COc1ccc(NC(=O)c2cc3cc4ccc(C)cc4nc3o2)cc1 [(280)]	0.006

System: P. falciparum
Experiment: microbe, parasite or virus in culture
Type: cell-based
Settings: Plasmodium falciparum, 72 h, read-out: PLM growth IC50

SMILES	IC50 [µM]
O=C1Nc2cc(C(=O)N3CCN(c4ccccc4)CC3)ccc2Sc2ccccc21 [(3) (TP-52)]	0.19
O=C1CN(/N=C/c2ccc(-c3ccc([N+](=O)[O-])cc3)o2)C(=O)N1 [dantrolene, reference compound]	3.8
CC1=Nc2ccc(C)cc2C1/C=C1/C(=N)N2N=C(S(=O)(=O)CC(C)C)SC2=NC1=O (centres unmarked) [Cpd 50]	2
COc1ccc2cc3cc(C(=O)N(C)C4CCCCC4)oc3nc2c1 [(25)]	0.17
O=C1N=C(N2CCCC2)S/C1=C/c1cccc(Cl)c1 [Cpd 80]	0.17
CCN(CC)CCCC(C)Nc1ccnc2cc(Cl)ccc12 (centres unmarked) [chloroquine, reference compound]	0.34
NS(=O)(=O)c1cc(C(=O)O)c(NCc2ccco2)cc1Cl [furosemide, reference compound]	21
COc1ccc(NC(=O)c2cc3cc4ccc(C)cc4nc3o2)cc1 [(280)]	0.23
CCCCN(CC)C(=O)c1cc2cc3ccc(C)cc3nc2o1 [(24)]	0.27
CCN(Cc1ccccc1)C(=O)c1ccc2c(c1)NC(=O)c1ccccc1S2 [(31)]	0.41
Cc1ccc(C)c(N2CCN(S(=O)(=O)c3ccc(-c4ccc(=O)[nH]n4)s3)CC2)c1 [ISG-21]	0.002

Same assay, conditions: Plasmodium falciparum, 72 h, read-out: RPMI growth IC50

SMILES	IC50 [µM]
O=C1Nc2cc(C(=O)N3CCN(c4ccccc4)CC3)ccc2Sc2ccccc21 [(3) (TP-52)]	7.3
O=C1CN(/N=C/c2ccc(-c3ccc([N+](=O)[O-])cc3)o2)C(=O)N1 [dantrolene, reference compound]	42
CC1=Nc2ccc(C)cc2C1/C=C1/C(=N)N2N=C(S(=O)(=O)CC(C)C)SC2=NC1=O (centres unmarked) [Cpd 50]	> 30
COc1ccc2cc3cc(C(=O)N(C)C4CCCCC4)oc3nc2c1 [(25)]	15
O=C1N=C(N2CCCC2)S/C1=C/c1cccc(Cl)c1 [Cpd 80]	12.5
CCN(CC)CCCC(C)Nc1ccnc2cc(Cl)ccc12 (centres unmarked) [chloroquine, reference compound]	0.22
NS(=O)(=O)c1cc(C(=O)O)c(NCc2ccco2)cc1Cl [furosemide, reference compound]	> 200
COc1ccc(NC(=O)c2cc3cc4ccc(C)cc4nc3o2)cc1 [(280)]	18
CCCCN(CC)C(=O)c1cc2cc3ccc(C)cc3nc2o1 [(24)]	23
CCN(Cc1ccccc1)C(=O)c1ccc2c(c1)NC(=O)c1ccccc1S2 [(31)]	4.7

Same assay, conditions: RPMI growth IC50 / PLM growth IC50

SMILES	IC50 ratio
O=C1Nc2cc(C(=O)N3CCN(c4ccccc4)CC3)ccc2Sc2ccccc21 [(3) (TP-52)]	38
OC(c1cc(C(F)(F)F)nc2c(C(F)(F)F)cccc12)C1CCCCN1 (centres unmarked) [mefloquine]	0.66
O=C1CN(/N=C/c2ccc(-c3ccc([N+](=O)[O-])cc3)o2)C(=O)N1 [dantrolene, reference compound]	18
CC1=Nc2ccc(C)cc2C1/C=C1/C(=N)N2N=C(S(=O)(=O)CC(C)C)SC2=NC1=O (centres unmarked) [Cpd 50]	>15
COc1ccc2cc3cc(C(=O)N(C)C4CCCCC4)oc3nc2c1 [(25)]	86
O=C1N=C(N2CCCC2)S/C1=C/c1cccc(Cl)c1 [Cpd 80]	130
COc1ccc(NC(=O)c2cc3cc4ccc(C)cc4nc3o2)cc1 [(280)]	270
C[C@@H]1CC[C@H]2[C@@H](C)C(=O)O[C@@H]3O[C@@]4(C)CC[C@@H]1[C@]32OO4 [artemisinin]	0.66
CCCCN(CC)C(=O)c1cc2cc3ccc(C)cc3nc2o1 [(24)]	114
CCN(Cc1ccccc1)C(=O)c1ccc2c(c1)NC(=O)c1ccccc1S2 [(31)]	15
Cc1ccc(C)c(N2CCN(S(=O)(=O)c3ccc(-c4ccc(=O)[nH]n4)s3)CC2)c1 [ISG-21]	800

System: not listed separately
Experiment: Mammalian cytotoxicity, MTS viability
Type: cell-based, human
Settings: human, HeLa cells; 72 h, MTS; read-out: HeLa cell CC50
Method: (§1) Cytotoxicity of PSAC inhibitors was measured with human HeLa cells (ATCC # CLL-2) in 96-well plates at 4000 cells/well. Cultures were incubated with each inhibitor at 37° C. for 72 h in Minimal Essential Medium (Gibco/Invitrogen, Carlsbad, Calif.) supplemented with 10% fetal calf serum. Cell viability was quantified using the vital stain MTS [3-(4,5-dimethylthiazol-2-yl)-5-(3-carboxymethonyphenol)-2-(4-sulfophenyl)-2H-tetrazolium, inner salt], as described (Marshall et al., Growth Regul., 5: 69-84 (1995)). The reported CC50 value is the concentration of an inhibitor that reduces conversion of MTS to formazan by 50%.

SMILES	CC50 at 72 h [µM]
O=C1Nc2cc(C(=O)N3CCN(c4ccccc4)CC3)ccc2Sc2ccccc21 [(3) (TP-52)]	> 100
CC1=Nc2ccc(C)cc2C1/C=C1/C(=N)N2N=C(S(=O)(=O)CC(C)C)SC2=NC1=O (centres unmarked) [Cpd 50]	> 100
COc1ccc(NC(=O)c2cc3cc4ccc(C)cc4nc3o2)cc1 [(280)]	> 100
CCCCN(CC)C(=O)c1cc2cc3ccc(C)cc3nc2o1 [(24)]	30
CCN(Cc1ccccc1)C(=O)c1ccc2c(c1)NC(=O)c1ccccc1S2 [(31)]	> 100
Cc1ccc(C)c(N2CCN(S(=O)(=O)c3ccc(-c4ccc(=O)[nH]n4)s3)CC2)c1 [ISG-21]	86

System: human HeLa cells
Experiment: Mammalian cytotoxicity, MTS viability
Type: cell-based
Settings: not given
Method: as §1

SMILES	specificity (HeLa CC50/parasite PLM IC50)
O=C1Nc2cc(C(=O)N3CCN(c4ccccc4)CC3)ccc2Sc2ccccc21 [(3) (TP-52)]	>530
CC1=Nc2ccc(C)cc2C1/C=C1/C(=N)N2N=C(S(=O)(=O)CC(C)C)SC2=NC1=O (centres unmarked) [Cpd 50]	>50
COc1ccc(NC(=O)c2cc3cc4ccc(C)cc4nc3o2)cc1 [(280)]	>430
CCCCN(CC)C(=O)c1cc2cc3ccc(C)cc3nc2o1 [(24)]	110
CCN(Cc1ccccc1)C(=O)c1ccc2c(c1)NC(=O)c1ccccc1S2 [(31)]	>240
Cc1ccc(C)c(N2CCN(S(=O)(=O)c3ccc(-c4ccc(=O)[nH]n4)s3)CC2)c1 [ISG-21]	43,000
